# According to patent publication US20070093520A1, “Method of treatment of diarrhea-predominant irritable bowel syndrome in a subject” (priority 2005, published 2007):
# Tested on: diarrhea-predominant IBS subjects
# Assay: 3007 Study: open-label 52-week safety study, adverse events and withdrawals
# Details: Placebo/Cilansetron 2 mg
compound,measurement,value
"Cc1nccn1C[C@H]1CCc2c(c3cccc4c3n2CCC4)C1=O [cilansetron, (R)-(−)-4,5,6,8,9,10-hexahydro-10-[(2-methyl-1H-imidazol-1-yl)methyl]-11H-pyrido-[3,2,1-jk]-carbazol-11-one]",TEAE: Eructation,0 n (%)
same,TEAE: Eye Injuries NEC,0 n (%)
same,TEAE: Faecal Abnormality NOS,1 (<1%) n (%)
same,TEAE: Faecal Impaction,1 (<1%) n (%)
same,TEAE: Faecal Incontinence,3 (1%) n (%)
same,TEAE: Faecal Occult Blood Positive,8 (3%) n (%)
same,TEAE: Faeces Abnormal,7 (3%) n (%)
same,TEAE: Faeces Hard,5 (2%) n (%)
same,TEAE: Fibromyalgia,0 n (%)
same,TEAE: Flatulence,10 (4%) n (%)
same,"TEAE: Flatulence, Bloating and Distension",13 (5%) n (%)
same,TEAE: Food Poisoning NOS,2 (<1%) n (%)
same,TEAE: Foot Fracture,1 (<1%) n (%)
same,TEAE: Fractures and Dislocations NEC,0 n (%)
same,TEAE: Frequent Bowel Movements,0 n (%)
same,TEAE: Fungal Infection NOS,1 (<1%) n (%)
same,TEAE: Fungal Infections NEC,4 (1%) n (%)
same,TEAE: Gamma-Glutamyltransferase Increased,3 (1%) n (%)
same,TEAE: Gastric Irritation,0 n (%)
same,TEAE: Gastritis (Excl Infective),0 n (%)
same,TEAE: Gastritis NOS,0 n (%)
same,TEAE: Gastroenteritis NOS,5 (2%) n (%)
same,TEAE: Gastroenteritis Viral NOS,6 (2%) n (%)
same,TEAE: Gastrointestinal Atonic and Hypomotility Disorders NEC,63 (23%) n (%)
same,TEAE: Gastrointestinal Disorders,134 (48%) n (%)
same,TEAE: Gastrointestinal Disorders NEC,2 (<1%) n (%)
same,TEAE: Gastrointestinal Dyskinetic Disorders,2 (<1%) n (%)
same,TEAE: Gastrointestinal Histopathology Procedures,12 (4%) n (%)
same,TEAE: Gastrointestinal Infections - Pathogen Class Unspecified,5 (2%) n (%)
same,TEAE: Gastrointestinal Inflammatory Disorders NEC,1 (<1%) n (%)
same,TEAE: Gastrointestinal Motility Disorder NOS,1 (<1%) n (%)
same,TEAE: Gastrointestinal Mucosal Dystrophies and Secretion Disorders,0 n (%)
same,TEAE: Gastrointestinal Signs and Symptoms NEC,2 (<1%) n (%)
same,TEAE: Gastrointestinal Spastic and Hypermotility Disorders,0 n (%)
same,TEAE: Gastrointestinal and Abdominal Pains (Excl Oral and Throat),33 (12%) n (%)
same,TEAE: Gingival Abscess,0 n (%)
same,TEAE: Gingival Atrophy,0 n (%)
same,TEAE: Gingival Disorders NEC,2 (<1%) n (%)
same,TEAE: Gingival Pain,0 n (%)
same,TEAE: Gingival Pains,0 n (%)
same,TEAE: Gingivitis,2 (<1%) n (%)
same,TEAE: Gingivitis Infection NOS,0 n (%)
same,TEAE: Glucose Urine Present,0 n (%)
same,TEAE: Groin Pain,0 n (%)
same,TEAE: Haematocrit Decreased,0 n (%)
same,TEAE: Haemoglobin Decreased,0 n (%)
same,TEAE: Haemorrhoidal Haemorrhage,2 (<1%) n (%)
same,TEAE: Haemorrhoids,7 (3%) n (%)
same,TEAE: Haemorrhoids Aggravated,1 (<1%) n (%)
same,TEAE: Haemorrhoids and Gastrointestinal Varices (Excl Oesophageal),9 (3%) n (%)
same,TEAE: Halitosis,0 n (%)
same,TEAE: Headache NOS,12 (4%) n (%)
same,TEAE: Headache NOS Aggravated,2 (<1%) n (%)
same,TEAE: Headaches NEC,14 (5%) n (%)
same,TEAE: Heart Rate Increased,1 (<1%) n (%)
same,TEAE: Heart Rate and Pulse Investigations,1 (<1%) n (%)
same,TEAE: Heat Exhaustion,0 n (%)
same,TEAE: Heat Injuries (Excl Thermal Burns),0 n (%)
same,TEAE: Helicobacter Pylori Antibody Positive,0 n (%)
same,TEAE: Herpes Simplex,1 (<1%) n (%)
same,TEAE: Herpes Simplex Aggravated,0 n (%)
same,TEAE: Herpes Viral Infections,2 (<1%) n (%)
same,TEAE: Herpes Zoster,1 (<1%) n (%)
same,TEAE: Hiatus Hernia,0 n (%)
same,TEAE: Hyperreflexia,0 n (%)
same,TEAE: Hypoaesthesia,1 (<1%) n (%)
same,TEAE: Infected Varicose Vein,0 n (%)
same,TEAE: Infections NEC,1 (<1%) n (%)
same,TEAE: Infections and Infestations,67 (24%) n (%)
same,TEAE: Influenza,7 (3%) n (%)
same,TEAE: Influenza Viral Infections,7 (3%) n (%)
same,TEAE: Inguinal Hernia NOS,1 (<1%) n (%)
same,TEAE: Inguinal Hernias,1 (<1%) n (%)
same,"TEAE: Injury, Poisoning and Procedural Complications",21 (8%) n (%)
same,TEAE: Intervertebral Disc Degeneration NOS,0 n (%)
same,TEAE: Intervertebral Disc Disorder NOS,0 n (%)
same,TEAE: Intervertebral Disc Disorders NEC,0 n (%)
same,TEAE: Intervertebral Disc Herniation,0 n (%)
same,TEAE: Intestinal Haemorrhages,4 (1%) n (%)
same,TEAE: Intraocular Pressure Increased,1 (<1%) n (%)
same,TEAE: Investigations,49 (18%) n (%)
same,TEAE: Irritable Bowel Syndrome,0 n (%)
same,TEAE: Irritable Bowel Syndrome Aggravated,0 n (%)
same,TEAE: Joint Related Disorders NEC,1 (<1%) n (%)
same,TEAE: Joint Related Signs and Symptoms,3 (1%) n (%)
same,TEAE: Joint Sprain,3 (1%) n (%)
same,TEAE: Joint Swelling,0 n (%)
same,TEAE: Kidney Infection NOS,1 (<1%) n (%)
same,TEAE: Laceration,3 (1%) n (%)
same,TEAE: Ligament Sprain,1 (<1%) n (%)
same,TEAE: Limb Discomfort NOS,1 (<1%) n (%)
same,TEAE: Limb Injuries NEC (Incl Traumatic Amputation),3 (1%) n (%)
same,TEAE: Limb Injury NOS,0 n (%)
same,TEAE: Lip and Palate Disorders NEC,1 (<1%) n (%)
same,TEAE: Liver Function Analyses,11 (4%) n (%)
same,TEAE: Liver Function Tests NOS Abnormal,2 (<1%) n (%)
same,TEAE: Localised Infection,1 (<1%) n (%)
same,TEAE: Localised Osteoarthritis,0 n (%)
same,TEAE: Loss of Consciousness,0 n (%)
same,TEAE: Lower Limb Fracture NOS,1 (<1%) n (%)
same,TEAE: Lower Limb Fractures and Dislocations,2 (<1%) n (%)
same,TEAE: Lower Respiratory Tract and Lung Infections,7 (3%) n (%)
same,TEAE: Lymphocyte Count Increased,0 n (%)
same,TEAE: Memory Loss (Excl Dementia),0 n (%)
same,TEAE: Metabolic Bone Disorders,1 (<1%) n (%)
same,TEAE: Metabolism Tests NEC,2 (<1%) n (%)
same,TEAE: Migraine Headaches,0 n (%)
same,TEAE: Migraine NOS,0 n (%)
same,TEAE: Mineral and Electrolyte Analyses,0 n (%)
same,TEAE: Monoarthritis,1 (<1%) n (%)
same,TEAE: Monocyte Count Decreased,1 (<1%) n (%)
same,TEAE: Monocyte Count Increased,0 n (%)
same,TEAE: Mononeuropathies,1 (<1%) n (%)
same,TEAE: Movement Disorder NOS,1 (<1%) n (%)
same,TEAE: Muscle Cramps,2 (<1%) n (%)
same,TEAE: Muscle Infections and Inflammations,1 (<1%) n (%)
same,TEAE: Muscle Pains,1 (<1%) n (%)
same,TEAE: Muscle Related Signs and Symptoms NEC,2 (<1%) n (%)
same,TEAE: Muscle Spasms,0 n (%)
same,TEAE: Muscle Strain,3 (1%) n (%)
same,TEAE: Muscle Tone Abnormalities,0 n (%)
same,"TEAE: Muscle, Tendon and Ligament Injuries",4 (1%) n (%)
same,TEAE: Musculoskeletal Chest Pain,0 n (%)
same,TEAE: Musculoskeletal and Connective Tissue Disorders,31 (11%) n (%)
same,TEAE: Musculoskeletal and Connective Tissue Signs and Symptoms NEC,14 (5%) n (%)
same,TEAE: Musculoskeletal and Soft Tissue Imaging Procedures,1 (<1%) n (%)
same,TEAE: Myalgia,1 (<1%) n (%)
same,TEAE: Myasthenia Gravis,1 (<1%) n (%)
same,TEAE: Mycoplasma Infections,0 n (%)
same,TEAE: Myeloradiculopathy,1 (<1%) n (%)
same,TEAE: Myositis,1 (<1%) n (%)
same,TEAE: Nail Fungal Infection NOS,2 (<1%) n (%)
same,TEAE: Nail Infection NOS,0 n (%)
same,TEAE: Nasopharyngitis,10 (4%) n (%)
same,TEAE: Nausea,10 (4%) n (%)
same,TEAE: Nausea and Vomiting Symptoms,14 (5%) n (%)
same,TEAE: Neck Pain,0 n (%)
same,TEAE: Nervous System Disorders,23 (8%) n (%)
same,TEAE: Neurological Signs and Symptoms NEC,2 (<1%) n (%)
same,TEAE: Neuromuscular Junction Dysfunction,1 (<1%) n (%)
same,TEAE: Neutrophil Count Decreased,0 n (%)
same,TEAE: Night Cramps,0 n (%)
same,TEAE: Nitrite Urine Present,1 (<1%) n (%)
same,TEAE: Non-Accidental Overdose,0 n (%)
same,TEAE: Non-Site Specific Injuries NEC,6 (2%) n (%)
same,TEAE: Non-Site Specific Procedural Complications,5 (2%) n (%)
same,TEAE: Ophthalmic Function Diagnostic Procedures,1 (<1%) n (%)
same,TEAE: Oral Dryness and Saliva Altered,1 (<1%) n (%)
same,TEAE: Osteoarthritis Aggravated,0 n (%)
same,TEAE: Osteoarthropathies,0 n (%)
same,TEAE: Osteopenia,1 (<1%) n (%)
same,TEAE: Osteoporosis NOS,1 (<1%) n (%)
same,TEAE: Otitis Media NOS,1 (<1%) n (%)
same,TEAE: Overdoses,0 n (%)
same,TEAE: Pain in Limb,4 (1%) n (%)
same,TEAE: Paraesthesias and Dysaesthesias,1 (<1%) n (%)
same,TEAE: Parkinson's Disease NOS,0 n (%)
same,TEAE: Parkinson's Disease and Parkinsonism,0 n (%)
same,TEAE: Periorbital Haematoma,0 n (%)
same,TEAE: Peripheral Swelling,0 n (%)
same,TEAE: Pharyngitis Streptococcal,3 (1%) n (%)
same,TEAE: Physical Examination Procedures,1 (<1%) n (%)
same,TEAE: Plantar Fasciitis,2 (<1%) n (%)
same,TEAE: Pneumonia Mycoplasmal,0 n (%)
same,TEAE: Pneumonia NOS,1 (<1%) n (%)
same,TEAE: Popliteal Bursitis,1 (<1%) n (%)
same,TEAE: Post Procedural Discomfort,1 (<1%) n (%)
same,TEAE: Post Procedural Pain,4 (1%) n (%)
same,TEAE: Proctalgia,4 (1%) n (%)
